Assay results reported in patent US11952433B2, “Heterochiral peptide-complex and composition for measuring nuclear magnetic resonance spectroscopy residual dipolar coupling containing self-assembled intermediates of heterochiral peptide-complex” (INDUSTRY-ACADEMIC COOPERATION FOUNDATION, YONSEI UNIVERSITY, priority 2020, dated 2024).

Assays:
[1] = Wide-angle X-ray scattering (WAXS) of the colloidal crystal solution; format: physicochemical; settings: for WAXS d-spacing, intersheet distance / WAXS reflection d (second reflection) / WAXS reflection d, interstrand distance of β-sheets: 3.0 mg/mL, room temperature
Description: Wide-angle X-ray scattering analysis was performed using the 4C SAXS II beamline (BL) of the Pohang Accelerator Laboratory (PAL, Korea). In-vacuum undulator 20 of the Pohang Light Source II storage ring was used as a beam source, and a vertical toroidal focusing mirror was used to deliver an X-ray beam of 0.675 Å. 100 μL of the sample solution was mounted in a quartz microcapillary with a thickness of 10 μm and a length of 80 mm. The sample was irradiated for 5 seconds of exposure time at room temperature. The concentrations of the samples of Comparative Examples 1-2 and Example 1 (T-W6, T-w6 and T-(wW)3) were all 3.0 mg/mL. The X-ray scattering patterns were collected by using a charge-coupled detector (Mar USA, Inc.) positioned 20 cm apart from the sample (0.25 Å^−1<q<2.00 Å^−1).
The data were captured in six continuous frames of 0.1 minute each to minimize the damage from irradiation. Each 2D scattering pattern was averaged circularly from the beam focus and normalized to the intensity of the transmitted X-ray beam. The transmitted beam intensity was monitored with a scintillation counter. The scattering pattern of water was used as the experimental background.
However, the detailed molecular arrangement of the peptide in each crystal might be different. To address this question, wide-angle X-ray scattering (WAXS) analysis of the colloidal crystal solution was performed.

[2] = Time course of self-assembly in solution by CD and AFM; format: physicochemical; settings: in water; for self-assembly kinetics (in words): CD and AFM with time
Description: The CD spectra of the peptide complexes in aqueous solution were acquired using a Chirascan™ CD spectrometer. All the peptide complexes were adjusted to 20 μM with DI water and then incubated at room temperature for 2 hours. The CD spectra were recorded using a 2-mm path-length cuvette from 250 nm to 190 nm at 25° C. Each spectrum was collected by averaging three scans and corrected for the distilled water background spectrum.
The peptide complex samples were diluted to 20 μM and 10 μL was dropped onto a freshly cleaved mica plate. After 1 minute of incubation, the mica plate was washed with 100 μL of doubly distilled water and then the residual solution was gently removed using filter paper. After completely drying at room temperature, AFM measurement was made. The AFM scans were conducted at noncontact mode (NCM) with a Park NX10 instrument (Park Systems, Korea). The scanning was performed at a scan rate of 0.3 Hz and a Z-gain of 1.
All the peptide samples were diluted to 1 mM and divided into 1-mL aliquots. The aliquots were heated at 95° C. for 1 hour and slowly annealed in a water bath overnight. After the annealing process, the samples were incubated at room temperature and the self-assembly process with time was analyzed by CD, AFM, WAXS, NMR, etc.

WAXS d-spacing, intersheet distance [1] [Å]	WAXS reflection d (second reflection) [1] [Å]	WAXS reflection d, interstrand distance of β-sheets [1] [Å]	Substance	distance between the β strands [1]	self-assembly kinetics (in words) [2]	time after which the increase in CD signals had almost ceased (self-assembly equilibrium) ([2]; room temperature after annealing) [weeks]
17.5	5.8	4.7	PEGylated (D)Trp-(D)Trp-(D)Trp-(D)Trp-(D)Trp-(D)Trp [Comparative Example 2]	–	–	–
–	–	–	PEGylated (L)Trp-(D)Trp-(L)Trp-(D)Trp-(L)Trp-(D)Trp [Example 2]	–	same slow assembly kinetics	–
17.5	5.8	4.7	PEGylated (L)Trp-(L)Trp-(L)Trp-(L)Trp-(L)Trp-(L)Trp [Comparative Example 1]	–	–	–

Substance	WAXS d-spacing, intersheet distance [1] [Å]	WAXS reflection d (second reflection) [1] [Å]	WAXS reflection d, interstrand distance of β-sheets [1] [Å]	distance between the β strands [1]	self-assembly kinetics (in words) [2]	time after which the increase in CD signals had almost ceased (self-assembly equilibrium) ([2]; room temperature after annealing) [weeks]
(D)Trp-(L)Trp-(D)Trp-(L)Tre-(D)Trp-(L)Trp [Example 1]	17.0	5.6	4.7	4.56-4.92 Å	markedly slower self-assembly kinetics	2
